Like-named read-outs stand apart in the source and are kept apart here.
How the values were obtained:
[1] = target: T1, [V390I/Y410E/E274V]-CfEcR (Choristoneura fumiferana, UniProt O77240); format: cell-based; conditions: 3T3 Cells; for RMFI (relative maximum fold induction): relative to GS-E ligand
T1 construct: assay construct b835
Procedure: (§1) Cellular gene switch assays were performed by transiently transfecting the following constructs in mouse embryonic fibroblast cells (NIH3T3). The wild-type D, E and F domains from Choristoneura fumiferana EcR or its V390I/Y410E/E274V mutant were fused to GAL4-DBD and placed under the control of the CMV promoter in the pBIND vector (Promega Corporation, Madison, Wis., USA). The DEF domains of EcRs shown were amplified using primers designed based on 20-25 nt sequences at the 5′ and 3′ ends. Restriction enzyme sites EcoR I/BamH I and Xba I were added to 5′ and 3′ primers respectively. The PCR products were digested with appropriate restriction enzymes and cloned into pBIND vector. The EcR LBDs cloned into pBIND vector were verified by sequencing. A chimeric RXR from Homo sapiens RXRP and Locusta migratoria RXR, fused to VP16-AD and placed under the control of an SV40e promoter, was constructed as previously described (Kumar P & Katakam A in Gene Transfer, Friedmann T and Rossi J, eds, pp. 643-651 (2007), Cold Spring Harbor Laboratory Press, Cold Spring Harbor, N.Y.). The inducible luciferase reporter plasmid pFRLuc (Stratagene Cloning Systems, La Jolla, Calif., USA), contains five copies of the GAL4 response element and a synthetic minimal promoter.
(§2) NIH3T3 cells were maintained at 37′C and 5% CO2 in Dulbecco's modified Eagle's medium (DMEM) supplemented with 10% bovine calf serum, both obtained from Mediatech Inc., Manassas, Va. Cells were planted in a 96-well plate at a density of 2,500 cells/well in 50 μL of growth medium. The following day cells were first treated with 35 μL of serum-free DMEM containing dimethyl sulfoxide (DMSO; control) or a DMSO solution containing ligand. Cells were then transfected with 15 μl of serum-free DMEM containing 0.04 μg of EcR construct, 0.04 ug of RXR construct, and 0.16 μg of luciferase reporter construct per well, using SuperFect™ transfection reagent (Qiagen Inc., Valencia, Calif., USA) according to the manufacturer's instructions. Ligands were tested at 8 doses from 0.01-33 μM and the final DMSO concentration was 0.33% in both control and treatment wells. After a 48 hour post-treatment and transfection incubation, the cells were assayed for luciferase activity using the Bright-Glo™ Luciferase Assay System (Promega Corporation, Madison, Wis., USA) following the manufacturer's instructions. EC50 values were measured minimally in duplicate.
(§3) Luciferase reporter gene expression was measured 48 h after cell treatment using Bright-Glo™ Luciferase Assay System from Promega (E2650). Luminescence was detected at room temperature using a Dynex MLX microtiter plate luminometer.
(§4) Each assay was conducted in two separate wells, and the two values were averaged. Fold inductions were calculated by dividing relative light units (“RLU”) in ligand treated cells with RLU in DMSO treated cells. EC50s were calculated from dose response data using a three-parameter logistic model. Relative Max FI was determined as the maximum fold induction of the tested ligand (an embodiment of the invention) observed at any concentration relative to the maximum fold induction of GS™-E ligand (3,5-dimethyl-benzoic acid N-tert-butyl-N′-(2-ethyl-3-methoxy-benzoyl)-hydrazide) observed at any concentration.

[2] = target: wild-type Choristoneura fumiferana EcR (D, E and F domains) (Choristoneura fumiferana, UniProt O77240); format: cell-based; conditions: WT-CtEcR, 3T3 Cells; for RMFI (relative maximum fold induction): relative to GS-E ligand
Procedure: as §1, §2, §3, §4

For `CCC[C@H](N(NC(=O)c1c(Cl)cccc1Cl)C(=O)c1cc(C)cc(C)c1)C(C)(C)C` [Example 41, (S)-3,5-Dimethyl-benzoic acid N-(1-tert-butyl-butyl)-N′-(2,6-dichloro-benzoyl)-hydrazide], the EC50 ([1]; S) was roughly 700 nM, the “RMFI (relative maximum fold induction)” value ([1]; S) was 0.62 and the EC50 ([2]; S) was roughly 3300 nM. The “RMFI (relative maximum fold induction)” value ([2]; S) was 0.10.
`CCC[C@@H](N(NC(=O)c1cc(OC)c(C)c(OC)c1)C(=O)c1cc(C)cc(C)c1)C(C)(C)C` [Example 19, (R)-3,5-Dimethyl-benzoic acid N-(1-tert-butyl-butyl)-N′-(3,5-dimethoxy-4-methyl-benzoyl)-hydrazide] was tested, and the EC50 ([1]; R) was roughly 2000 nM, the “RMFI (relative maximum fold induction)” value ([1]; R) was 0.37 and the EC50 ([2]; R) was roughly 5000 nM. The “RMFI (relative maximum fold induction)” value ([2]; R) was 0.09.
`C=CC[C@H](C1CCCCC1)N(NC(=O)c1cccc(OC)c1C)C(=O)c1cc(C)c(OC)c(C)c1` [Example 61, (R)-4-Methoxy-3,5-dimethyl-benzoic acid N-(1-cyclohexyl-but-3-enyl)-N′-(3-methoxy-2-methyl-benzoyl)-hydrazide] was tested, and the EC50 ([1]; R) was 1020 nM, the “RMFI (relative maximum fold induction)” value ([1]; R) was 0.67 and the EC50 ([2]; R) was roughly 3300 nM. The “RMFI (relative maximum fold induction)” value ([2]; R) was 0.33.
With `CCC[C@H](C1CCCCC1)N(NC(=O)c1ccccc1)C(=O)c1cc(C)cc(C)c1` [Example 53, (R)-3,5-Dimethyl-benzoic acid N′-benzoyl-N-(1-cyclohexyl-butyl)-hydrazide] the EC50 ([1]; R) was 629 nM, the “RMFI (relative maximum fold induction)” value ([1]; R) was 0.62 and the EC50 ([2]; R) was roughly 3300 nM. For the same compound, the “RMFI (relative maximum fold induction)” value ([2]; R) was 0.30.
In the case of `CCCC(N(NC(=O)c1ccc(Cl)cc1)C(=O)c1cc(C)cc(C)c1)C(C)(C)C` (racemic) [rac-14], the EC50 ([1]; rac, read-out: EC50) is reported as roughly 20 nM, the “RMFI (relative maximum fold induction)” value ([1]; rac) is reported as 0.83 and the EC50 ([2]; rac, read-out: EC50) is reported as roughly 200 nM. For the same compound, the “RMFI (relative maximum fold induction)” value ([2]; rac) was 0.46.
For `CCCC(N(NC(=O)c1ccc(CC)cc1)C(=O)c1cc(C)cc(C)c1)C(C)(C)C` (racemic) [rac-12], the EC50 ([1]; rac, read-out: EC50) was roughly 0.6 nM, the “RMFI (relative maximum fold induction)” value ([1]; rac) was 0.96 and the EC50 ([2]; rac, read-out: EC50) was roughly 20 nM. The “RMFI (relative maximum fold induction)” value ([2]; rac) was 0.79.
With `CCC[C@H](N(NC(=O)c1ccccc1)C(=O)c1cc(C)cc(C)c1)C(C)(C)C` [Example 32] the EC50 ([1]; S) was 267 nM, the “RMFI (relative maximum fold induction)” value ([1]; S) was 0.38 and the EC50 ([2]; S) was roughly 3300 nM. The “RMFI (relative maximum fold induction)” value ([2]; S) was 0.19.
With `CCCC(N(NC(=O)c1cccc(OC)c1CC)C(=O)c1cc(C)cc(C)c1)C(C)(C)C` (racemic) [rac-2] the EC50 ([1]; rac, read-out: EC50) was 3.9 nM, the “RMFI (relative maximum fold induction)” value ([1]; rac) was 0.85 and the EC50 ([2]; rac, read-out: EC50) was roughly 100 nM. The “RMFI (relative maximum fold induction)” value ([2]; rac) was 0.60.
For `CCCC(N(NC(=O)c1c(Cl)cccc1Cl)C(=O)c1cc(C)cc(C)c1)C(C)(C)C` (racemic) [rac-16, rac-3,5-dimethyl-benzoic acid N-(1-tert-butyl-butyl)-N′-(2,6-dichloro-benzoyl)-hydrazide], the EC50 ([1]; rac) was roughly 30 nM, the “RMFI (relative maximum fold induction)” value ([1]; rac) was 0.73 and the EC50 ([2]; rac) was roughly 300 nM. The “RMFI (relative maximum fold induction)” value ([2]; rac) was 0.43.
With `CCC[C@@H](N(NC(=O)c1ccc(Cl)nc1)C(=O)c1cc(C)cc(C)c1)C(C)(C)C` [Example 28, (R)-3,5-Dimethyl-benzoic acid N-(1-tert-butyl-butyl)-N′-(6-chloro-pyridine-3-carbonyl)-hydrazide] the EC50 ([1]; R) was roughly 20 nM, the “RMFI (relative maximum fold induction)” value ([1]; R) was 0.78 and the EC50 ([2]; R) was 243 nM. For the same compound, the “RMFI (relative maximum fold induction)” value ([2]; R) was 0.38.
`CCC[C@H](C1CCCCC1)N(NC(=O)c1ccc(CC)cc1)C(=O)c1cc(C)cc(C)c1` [Example 55, (R)-3,5-Dimethyl-benzoic acid N-(1-cyclohexyl-butyl)-N′-(4-ethyl-benzoyl)-hydrazide] was tested, and the EC50 ([1]; R) was roughly 70 nM, the “RMFI (relative maximum fold induction)” value ([1]; R) was 0.42 and the EC50 ([2]; R) was roughly 2000 nM. The “RMFI (relative maximum fold induction)” value ([2]; R) was 0.26.
In the case of `CCCC(N(NC(=O)c1ccccc1Cl)C(=O)c1cc(C)cc(C)c1)C(C)(C)C` (racemic) [rac-6], the EC50 ([1]; rac, read-out: EC50) is reported as 1.2 nM, the “RMFI (relative maximum fold induction)” value ([1]; rac) is reported as 0.95 and the EC50 ([2]; rac, read-out: EC50) is reported as 59 nM. For the same compound, the “RMFI (relative maximum fold induction)” value ([2]; rac) was 0.72.
With `CCCC(N(NC(=O)c1ccc(Cl)nc1)C(=O)c1cc(C)cc(C)c1)C(C)(C)C` (racemic) [rac-28] the EC50 ([1]; rac, read-out: EC50) was 47 nM, the “RMFI (relative maximum fold induction)” value ([1]; rac) was 0.68 and the EC50 ([2]; rac, read-out: EC50) was 470 nM. For the same compound, the “RMFI (relative maximum fold induction)” value ([2]; rac) was 0.70.
In the case of `CCCC(N(NC(=O)c1ccc(OC)c(OC)c1)C(=O)c1cc(C)cc(C)c1)C(C)(C)C` (racemic) [rac-17], the EC50 ([1]; rac, read-out: EC50) is reported as 720 nM, the “RMFI (relative maximum fold induction)” value ([1]; rac) is reported as 0.51 and the EC50 ([2]; rac, read-out: EC50) is reported as 4130 nM. The “RMFI (relative maximum fold induction)” value ([2]; rac) was 0.25.
For `CCC[C@@H](C1CCCCC1)N(NC(=O)c1ccc(CC)cc1)C(=O)c1cc(C)cc(C)c1` [Example 59, (S)-3,5-Dimethyl-benzoic acid N-(1-cyclohexyl-butyl)-N′-(4-ethyl-benzoyl)-hydrazide], the EC50 ([1]; S) was roughly 30 nM, the “RMFI (relative maximum fold induction)” value ([1]; S) was 0.35 and the EC50 ([2]; S) was roughly 1000 nM. The “RMFI (relative maximum fold induction)” value ([2]; S) was 0.28.
With `CCC[C@@H](C1CCCCC1)N(NC(=O)c1cccc(OC)c1)C(=O)c1cc(C)cc(C)c1` [Example 58, (S)-3,5-Dimethyl-benzoic acid N-(1-cyclohexyl-butyl)-N′-(3-methoxy-benzoyl)-hydrazide] the EC50 ([1]; S) was 121 nM, the “RMFI (relative maximum fold induction)” value ([1]; S) was 0.42 and the EC50 ([2]; S) was roughly 3300 nM. The “RMFI (relative maximum fold induction)” value ([2]; S) was 0.25.
With `CCC[C@@H](N(NC(=O)c1ccc2c(c1C)OCO2)C(=O)c1cc(C)cc(C)c1)C(C)(C)C` [Example 20, (R)-3,5-Dimethyl-benzoic acid N-(1-tert-butyl-butyl)-N′-(4-methyl-benzo[1,3]dioxole-5-carbonyl)-hydrazide] the EC50 ([1]; R) was 0.26 nM, the “RMFI (relative maximum fold induction)” value ([1]; R) was 1.01 and the EC50 ([2]; R) was 7.6 nM. The “RMFI (relative maximum fold induction)” value ([2]; R) was 1.02.
`CCC[C@H](N(NC(=O)c1c(F)cccc1F)C(=O)c1cc(C)cc(C)c1)C(C)(C)C` [Example 40, (S)-3,5-Dimethyl-benzoic acid N-(1-tert-butyl-butyl)-N′-(2,6-difluoro-benzoyl)-hydrazide] was tested, and the EC50 ([1]; S) was roughly 20 nM, the “RMFI (relative maximum fold induction)” value ([1]; S) was 0.69 and the EC50 ([2]; S) was roughly 1000 nM. The “RMFI (relative maximum fold induction)” value ([2]; S) was 0.39.
With `CCC[C@H](N(NC(=O)c1ccccc1Br)C(=O)c1cc(C)cc(C)c1)C(C)(C)C` [Example 36, (S)-3,5-Dimethyl-benzoic acid N′-(2-bromo-benzoyl)-N-(1-tert-butyl-butyl)-hydrazide] the EC50 ([1]; S) was 433 nM, the “RMFI (relative maximum fold induction)” value ([1]; S) was 0.36 and the EC50 ([2]; S) was roughly 3300 nM. The “RMFI (relative maximum fold induction)” value ([2]; S) was 0.11.
`CCCC(N(NC(=O)c1cccs1)C(=O)c1cc(C)cc(C)c1)C(C)(C)C` (racemic) [rac-25] was tested, and the EC50 ([1]; rac, read-out: EC50) was 172 nM, the “RMFI (relative maximum fold induction)” value ([1]; rac) was 0.89 and the EC50 ([2]; rac, read-out: EC50) was 3160 nM. For the same compound, the “RMFI (relative maximum fold induction)” value ([2]; rac) was 0.52.
With `CCCC(N(NC(=O)c1cc(F)cc(F)c1)C(=O)c1cc(C)cc(C)c1)C(C)(C)C` (racemic) [rac-18] the EC50 ([1]; rac, read-out: EC50) was roughly 3 nM, the “RMFI (relative maximum fold induction)” value ([1]; rac) was 1.00 and the EC50 ([2]; rac, read-out: EC50) was 30.5 nM. The “RMFI (relative maximum fold induction)” value ([2]; rac) was 0.26.
For `CCCC(N(NC(=O)c1cccc2ccccc12)C(=O)c1cc(C)cc(C)c1)C(C)(C)C` (racemic) [rac-23], the EC50 ([1]; rac, read-out: EC50) was 66 nM, the “RMFI (relative maximum fold induction)” value ([1]; rac) was 0.84 and the EC50 ([2]; rac, read-out: EC50) was 521 nM. The “RMFI (relative maximum fold induction)” value ([2]; rac) was 0.60.
`CCCC(N(NC(=O)c1c(F)cccc1F)C(=O)c1cc(C)cc(C)c1)C(C)(C)C` (racemic) [rac-15] was tested, and the EC50 ([1]; rac, read-out: EC50) was roughly 1 nM, the “RMFI (relative maximum fold induction)” value ([1]; rac) was 0.92 and the EC50 ([2]; rac, read-out: EC50) was 94 nM. The “RMFI (relative maximum fold induction)” value ([2]; rac) was 0.68.

Reference: patent US20200270225A1, “Chiral Diacylhydrazine Ligands for Modulating the Expression of Exogenous Genes via an Ecdysone Receptor Complex” (Intrexon Corporation, priority 2007, published 2020)
